Assay results reported in PMC12261228 (ACS Pharmacology & Translational Science, 2025).
Where two headings read alike, the source gives them in different places.

Experiments:
[1] = tested on: CCRF-CEM; test: MTS cytotoxicity assay, 72 h; format: cell-based
[2] = tested on: K562; test: MTS cytotoxicity assay, 72 h; format: cell-based; conditions: Homo sapiens, K562, 72 h, read-out: IC50 K562
[3] = tested on: HCT116; test: MTS cytotoxicity assay, 72 h; format: cell-based; conditions: Homo sapiens, HCT-116, 72 h, read-out: IC50 HCT116
[4] = tested on: HCT116p53–/–; test: MTS cytotoxicity assay, 72 h; format: cell-based; conditions: read-out: IC50 HCT116p53–/–
[5] = tested on: U2OS; test: MTS cytotoxicity assay, 72 h; format: cell-based, human; conditions: Homo sapiens, U2OS, 72 h
[6] = tested on: MRC-5; test: MTS cytotoxicity assay, 72 h; format: cell-based; conditions: Homo sapiens, MRC5, 72 h, read-out: IC50 MRC-5
[7] = tested on: BJ; test: MTS cytotoxicity assay, 72 h; format: cell-based; conditions: Homo sapiens, read-out: IC50 BJ
[8] = tested on: A549; test: MTS cytotoxicity assay, 72 h; format: cell-based; conditions: Homo sapiens, Fig. S22
Description: Cell suspensions were prepared and diluted according to the particular cell type and the expected target cell density (500 – 4,000 cells/well). The cells (30 μL/well) were seeded to 384-well clear Corning plates by MultiDrop Combi (Thermo Fisher Scientific, USA). After 24 h the cells were treated with tested compounds as well as with vehicle (DMSO) and high controls (2.67 μM of Actinomycin D and 100 μM Mitomycin C) using contact-free acoustic liquid handler ECHO 555 (Labcyte, USA). Compounds were analyzed at a concentration range from 0.012 μM to 50 μM. Treated cells were incubated at 37 °C in a 5% CO2 atmosphere of a humidified incubator for 72 h. At the end of the incubation period, aliquots of the MTS (Promega) solution prepared according to manufacturer's instructions were added to cells (https://worldwide.promega.com/resources/protocols/technical-bulletins/0/celltiter-96-aqueous-nonradioactive-cell-proliferation-assay-protocol/). After 1 – 4 h of the incubation period, the optical density (OD) at 490 nm was measured on a multimode plate reader EnVision (PerkinElmer, USA). The experiments were performed in technical duplicates and at least three biological replicates. […] The assay quality was monitored by determining the Z′-factor for each 384-well plate. The resistance index (RI), representing the reduction in compound activity on resistant cell lines, was calculated as RI = (IC50 of resistant cell lines, CEM-DNR, K562-TAX)/(IC50 of nonresistant counterparts, CCRF-CEM, K562). Similarly, the selectivity index (SI), indicating preferential cytotoxicity toward tumor cell lines, was calculated as SI = (mean IC50 of nontumor cell lines, BJ and MRC5)/(mean IC50 of cancer cell lines without resistant variants, CCRF-CEM, K562, HCT116, HCT116p53–/–, U2OS).

[9] = tested on: CEM-DNR; test: MTS cytotoxicity assay, 72 h; format: cell-based; conditions: Homo sapiens, read-out: IC50 CEM-DNR
[10] = tested on: K562-TAX; test: MTS cytotoxicity assay, 72 h; format: cell-based; conditions: read-out: IC50 K562-TAX
[11] = tested on: HUVEC; test: MTS cytotoxicity assay, 72 h; format: cell-based; conditions: Homo sapiens, 3-day incubation, mean ± SD
[12] = tested on: panel of cell lines
[13] = tested on: CCRF-CEM lymphoblasts; test: FACS analysis of cell cycle, apoptosis, mitosis and polyploidy; conditions: for Mitosis: phospho-Histone (Ser10); for Apoptosis: sub-G0/G1 DNA content, % of positive cells
[14] = MTS assay, 3-day incubation, mean ± SD
[15] = normal fibroblasts, MTS assay, 3-day incubation, mean ± SD
[16] = Homo sapiens, CCRF-CEM, 72 h, read-out: IC50 CCRF-CEM, MTS assay, 3-day incubation, mean ± SD of 3 experiments
[17] = read-out: IC50 U2OS, MTS assay, 3-day incubation, mean ± SD

| Compound | IC50 [1, 16] [µM] | IC50 [9] [µM] | IC50 [2] [µM] | IC50 [10] [µM] | IC50 [3] [µM] | IC50 [4] [µM] | IC50 [5, 17] [µM] | IC50 [6] [µM] | IC50 [7] [µM] | IC50 [11] [µM] | RI (resistance index) [12] | SI (selectivity index) [12] | G0/G1 ([13]; 1×IC50, 24 h) [%] | G2/M ([13]; 1×IC50, 24 h) [%] | Polyploid cells ([13]; 1×IC50, 24 h) [%] | S ([13]; 1×IC50, 24 h) [%] | Mitosis ([13]; 1×IC50, 24 h) [%] | Apoptosis ([13]; 1×IC50, 24 h) [%] | G0/G1 ([13]; 5×IC50, 24 h) [%] | Polyploid cells ([13]; 5×IC50, 24 h) [%] | also measured |
| --- | --- | --- | --- | --- | --- | --- | --- | --- | --- | --- | --- | --- | --- | --- | --- | --- | --- | --- | --- | --- | --- |
| CC1=CC(C)=[N+]2C1=C(CCC(=O)O)c1c(C)cc(C)n1[B-]2(F)F [B1] |  |  |  |  |  |  |  |  |  |  |  |  |  |  |  |  |  |  |  |  | IC50 ([1]; Homo sapiens, CCRF-CEM, 72 h, MTS assay, 3-day incubation, mean ± SD of 3 experiments, read-out: IC50 CCRF-CEM): > 50 µM; IC50 [2, 14]: > 50 µM; IC50 [3, 14]: > 50 µM; IC50 [4, 14]: > 50 µM; IC50 ([5]; MTS assay, 3-day incubation, mean ± SD, read-out: IC50 U2OS): > 50 µM; IC50 [6, 15]: > 50 µM; IC50 [7, 15]: > 50 µM; IC50 [8]: > 50 µM |
| COc1cc2c(c(OC)c1OC)-c1ccc(OC)c(=O)cc1[C@@H](NC(=O)CCCCCCCCCCC1=C3C(C)=CC(C)=[N+]3[B-](F)(F)n3c(C)cc(C)c31)CC2 [CB2] | 0.33 ± 0.005 | 1.45 ± 0.06 | 0.19 ± 0.04 | 0.58 ± 0.035 | > 50 | > 50 | > 50 | > 50 | > 50 | 0.36 ± 0.035 | 3.90 | >1.66 | 6.59 | 89.19 | 23.67 | 4.22 | 45.60 | 8.51 | 5.2 | 26.18 | cytotoxic activity across the cell line panel (in words) [12]: selectively killed/affected suspension cell lines; S ([13]; 5×IC50, 24 h): 1.29%; Mitosis ([13]; 5×IC50, 24 h): 79.51%; Apoptosis ([13]; 5×IC50, 24 h): 13.84% |
| COc1cc2c(c(OC)c1OC)-c1ccc(OC)c(=O)cc1[C@@H](NC(=O)CCCC[N+](C)(C)CCCCC1=C3C(C)=CC(C)=[N+]3[B-](F)(F)n3c(C)cc(C)c31)CC2 [CB3] | 9.33 ± 0.952 | > 50 | 9.5 ± 2.37 | 40.1 ± 1.07 | 31.6 ± 4.54 | 36.4 ± 5.03 | > 50 | > 50 | > 50 | > 50 | >4.79 | >1.83 | 2.89 | 79.08 | 26.03 | 18.03 | 58.58 | 16.41 | 7.84 | 26.25 | cytotoxic activity across the cell line panel (in words) [12]: significantly lower; apoptosis in CCRF-CEM cells ([13]; 1× and 5 × IC50, compared with DMSO): 20%; G2/M ([13]; 5×IC50, 24 h): 84.01%; S ([13]; 5×IC50, 24 h): 8.15%; Mitosis ([13]; 5×IC50, 24 h): 57.12%; Apoptosis ([13]; 5×IC50, 24 h): 20.64% |
| COc1cc2c(c(OC)c1OC)-c1ccc(OC)c(=O)cc1[C@@H](n1cc(CCCCCCCCC3=C4C(C)=CC(C)=[N+]4[B-](F)(F)n4c(C)cc(C)c43)[n+](C)n1)CC2 [CB8] | 7.11 ± 1.14 | 6.53 ± 0.458 | 7.83 ± 0.892 | 6.35 ± 0.335 | 8.81 ± 1.94 | 9.36 ± 0.87 | 11.9 ± 1.11 | 22.1 ± 1.22 | 36.9 ± 5.68 | 23.5 ± 1.29 | 0.86 | 3.28 | 8.68 | 80.01 | 23.43 | 11.31 | 5.79 | 11.09 | 9.49 | 20.18 | G2/M ([13]; 5×IC50, 24 h): 87.34%; S ([13]; 5×IC50, 24 h): 3.17%; Mitosis ([13]; 5×IC50, 24 h): 13.33%; Apoptosis ([13]; 5×IC50, 24 h): 3.98% |
| COc1cc(C2=C3C(C)=CC(C)=[N+]3[B-](F)(F)n3c(C)cc(C)c32)ccc1OCc1cn([C@H]2CCc3cc(OC)c(OC)c(OC)c3-c3ccc(OC)c(=O)cc32)n[n+]1C [CB9] | 4.81 ± 0.641 | 6.49 ± 0.639 | 7.69 ± 0.45 | 5.78 ± 0.561 | 8.27 ± 1.43 | 8.56 ± 0.365 | > 50 | > 50 | > 50 | 40.1 ± 2.93 | 0.98 | >3.15 | 12.83 | 60.07 | 29.32 | 27.11 | 32.84 | 8.93 | 19.56 | 26.30 | G2/M ([13]; 5×IC50, 24 h): 48.91%; S ([13]; 5×IC50, 24 h): 31.53%; Mitosis ([13]; 5×IC50, 24 h): 31.00%; Apoptosis ([13]; 5×IC50, 24 h): 14.27% |
| COc1cc2c(c(OC)c1OC)-c1ccc(NCCCCC3=C4C(C)=CC(C)=[N+]4[B-](F)(F)n4c(C)cc(C)c43)c(=O)cc1[C@@H](NC(C)=O)CC2 [CB10] | 7.13 | 11.1 ± 0.959 | 10.8 ± 0.431 | 14.8 ± 2.94 | 35.8 ± 5.91 | > 50 | > 50 | > 50 | > 50 | 32.3 ± 0.42 | 1.45 | >1.63 | 34.04 | 26.65 | 12.43 | 39.32 | 2.86 | 3.87 | 8.21 | 25.51 | IC50 ([1]; read-out: IC50 CCRF-CEM, MTS assay, 3-day incubation, mean ± SD of 3 experiments): 7.11 ± 0.651 µM; cytotoxic activity across the cell line panel (in words) [12]: significantly lower; G2/M ([13]; 5×IC50, 24 h): 62.62%; S ([13]; 5×IC50, 24 h): 29.17%; Mitosis ([13]; 5×IC50, 24 h): 36.02%; Apoptosis ([13]; 5×IC50, 24 h): 11.26% |
